These results are taken from the Deep4Chem optical property database.

Where “and” joins values, the source holds several entries; their conditions need not be identical. Equal entries are not always repeated.

The nature of the data set: solvent given as SMILES.

As to `Cc1cc(C)c(B(c2ccc(-c3nc4c5ccccc5c5ccccc5c4[nH]3)cc2)c2c(C)cc(C)cc2C)c(C)c1`, the emission maximum is, setting by setting: (in C1CCOC1) 456 nm; (in CC(C)=O) 469 nm; (in CS(C)=O) 484 nm; (in Cc1ccccc1) 435 nm; (in ClCCl) 454 nm.
The compound `COc1ccc2c(c1)SCC1=C(c3ccccc3)C3=Nc4c(-c5ccccc5)c5c(n4[B-](F)(F)[N+]3=C12)-c1ccc(OC)cc1SC5` registered an emission maximum (in ClC(Cl)Cl) of 730 nm.
As to `CC1=[N+]2C(=C(C3=CC4OCCOCCOCCOCCOC4C=C3)c3c4ccccc4c(/C=C/c4ccc(N(C)C)cc4)n3[B-]2(F)F)c2ccccc21` (stereo unspecified), the emission maximum (in CC#N) worked out at 741 nm.
Still for that read-out and setting: as for `COC(=O)/C=C/c1sc(-c2ccc(N(C)C)s2)c(-c2ccsc2)c1N`, the figure is 557 nm.
With `CCn1c2ccsc2c2c3nsnc3c3c4sccc4n(CC)c3c21`, the emission maximum is, setting by setting: (in C1CCOC1) 539 nm; (in CCOC(C)=O) 538 nm; (in CN(C)C=O) 573 nm; (in Cc1ccccc1) 523 nm; (in ClCCl) 565 nm.
In the case of `CCCCCCCCN1C(=O)c2ccc3c4c(-c5ccc6c(c5)c5ccccc5n6-c5ccccc5)cc5c6c(ccc(c7c(-c8ccc9c(c8)c8ccccc8n9-c8ccccc8)cc(c2c37)C1=O)c64)C(=O)N(CCCCCCCC)C5=O`, the emission maximum (in ClC(Cl)Cl) came out at 689 nm.
Compound `C(=C/c1ccc(N(c2ccccc2)c2ccccc2)cc1)/c1ccc(N(c2ccccc2)c2ccccc2)cc1` showed an emission maximum (in ClCCl) of 441 nm.
Take `CCOC(=O)c1ccccc1-c1c2ccc(=[N+](CC)CC)cc-2oc2cc(N(CC)CC)ccc12`: the emission maximum was 581 nm (in CC#N), 571 nm (in CCO), 585 nm (in CN(C)C=O) and 581 nm (in O).
With `COc1ccc(-n2cccc2)cc1`, the emission maximum is, setting by setting: (in CC#N) 327 nm; (in CCCCCC) 324 nm.
As to `[C-]#[N+]c1ccc(-c2ccc(N(C)C)cc2)cc1`, the emission maximum came to 360 nm (in C1CCCCC1); 408 nm (in C1CCOC1); 397 nm (in C1COCCO1); 429 nm (in CC#N); 422 nm (in CC(C)=O); 357 nm (in CCCCCC). The emission maximum by setting is: (in CCOC(C)=O) 406 nm; (in CN(C)C=O) 433 nm; (in CO) 430 nm; (in CS(C)=O) 447 nm; (in Cc1ccccc1) 387 nm; (in ClC(Cl)Cl) 405 nm. The emission maximum runs as follows: (in ClCCl) 412 nm; (in O) 417 nm; (in c1ccncc1) 422 nm.
Take `Cc1ccc(C)n1-c1cccc(C#N)c1`: the emission maximum (in C1CCOC1) came to 481 nm; the emission maximum (in CCCCCC) amounted to 403 nm; the emission maximum (in CCCCCl) turned out to be 477 nm; the emission maximum (in CCOCC) was determined as 444 nm; the emission maximum (in ClCCl) was 504 nm.
`CCB1c2ccccc2Nc2ccccc21` yielded an emission maximum (in ClCCl) of 494 nm.
For the compound `CC1(C)c2ccccc2N(c2ccc(-c3nnc(-c4cc(-c5ccccc5)c(-c5ccccc5)c(-c5ccccc5)c4-c4ccccc4)o3)cc2)c2ccccc21`, the emission maximum (in Cc1ccccc1) is reported as 445 nm and the emission maximum (in c1ccc(-n2c(-c3c(-n4c5ccccc5c5ccccc54)cccc3-n3c4ccccc4c4ccccc43)nc3ccccc32)cc1) worked out at 453 nm.
On to `Cn1c(=O)nc2n(C)c3ccccc3nc-2c1=O`, for which the emission maximum runs as follows: (in CC1CCCO1) 490 nm; (in CC#N) 529 nm.
The compound `CC1=C(C)C(c2c(C)c(C)c3n2[B-](F)(F)[N+]2=C(C)C(C)=C(C)C2=C3)=[N+]2C1=Cc1c(C)c(C)c(C)n1[B-]2(F)F` gave an emission maximum (in ClCCl) of 650 nm.
`N#Cc1nc(N(Cc2ccccc2Br)Cc2ccccc2Br)c(C#N)nc1N(Cc1ccccc1Br)Cc1ccccc1Br` showed an emission maximum (in ClC(Cl)Cl) of 565 nm.
Turning to `CC(C)(C)c1ccc2c(c1)c1cc(C(C)(C)C)ccc1n2-c1ccc2oc3nc4oc5ccc(C(F)(F)F)cc5c4cc3c2c1`, the emission maximum came out at 396 nm (in C1CCCCC1); 455 nm (in C1CCOC1); 513 nm (in CC#N); 517 nm (in CS(C)=O); 422 nm (in Cc1ccccc1); 364 nm (in ClC(Cl)Cl).
The compound `O=C1NC(=O)c2ccc(N3CCCCC3)c3cccc1c23` displayed an emission maximum (in ClC(Cl)Cl) of 517 nm.
As for `COC(=O)c1cc(=O)n(C)c2cc(-c3cc4c5c(c3)CCCN5CCC4)sc12`, the emission maximum is, setting by setting: (in C1CCOC1) 502 nm; (in CC#N) 511 nm; (in CCO) 508 nm; (in CN(C)C=O) 509 nm; (in CO) 493 nm; (in CS(C)=O) 508 nm. Further, the emission maximum (in Cc1ccccc1) came out at 529 nm, the emission maximum (in ClC(Cl)Cl) came out at 580 nm and the emission maximum (in ClCCl) stood at 605 nm.
Compound `c1ccc(-c2nc(-c3ccccc3)nc(-c3ccc(-n4c5ccccc5c5c4c4ccccc4n5-c4ccccc4)cc3)n2)cc1` had an emission maximum (in Cc1ccccc1) of 526 nm.
In the case of `C[Si]1(C)C2=CC(=[N+]3CCC3)C=C(F)C2=Nc2c(F)cc(N3CCC3)cc21`, the emission maximum (in CCO) is listed as 719 nm.
`Cc1nc2c(ccc3c2sc(/C=C/C=C/c2ccc(N(C)C)cc2)[n+]3C)s1`: the emission maximum came out at 700 nm (in CO) and 696 nm (in ClC(Cl)Cl).
As to `COc1ccccc1-c1nc2c([nH]1)C1=CC(=O)S[C@]1(C)[C@@]1(C)SC(=O)C=C21`, for the setting “in CC#N”, the emission maximum is 505 nm.
`O=C(c1ccc(C(=C(c2ccc(C(=O)c3ccc(-n4c5ccccc5c5ccccc54)cc3)cc2)c2ccc(C(=O)c3ccc(-n4c5ccccc5c5ccccc54)cc3)cc2)c2ccccc2)cc1)c1ccc(-n2c3ccccc3c3ccccc32)cc1` displayed an emission maximum (in C1CCOC1) of 503 nm.
On to `CCOC(=O)c1c(-c2cc3ccccc3oc2=O)nn(-c2cccc(F)c2)c1C(=O)OCC`, for which the emission maximum (in ClCCl) came out at 401 nm.
Compound `c1ccc2c(c1)-c1cc(-n3c4ccccc4c4ccccc43)ccc1C21c2ccccc2-n2c3ccccc3c3cccc1c32` (stereo unspecified) showed an emission maximum (in ClCCl) of 372 nm.
`COc1cc(/C=C/c2nc3ccccc3s2)c(OC)cc1/C=C/c1nc(C)nc(/C=C/c2cc(OC)c(/C=C/c3nc4ccccc4s3)cc2OC)n1`: the emission maximum runs as follows: (in C1CCOC1) 490 nm; (in CC#N) 505 nm; (in ClC(Cl)Cl) 500 nm; (in ClCCl) 502 nm.
`O=c1c2cc3ccc4cccc5ccc(c2c(=O)n1-c1ccccc1)c3c45` displayed an emission maximum (in ClC(Cl)Cl) of 461 nm.
On the same count and under the same terms, as for `CN1C(=CC2=C([O-])C(=Cc3oc4ccccc4[n+]3C)C2=C(C#N)C#N)Sc2ccccc21`, the figure is 682 nm.
Turning to `c1ccc(-c2nc(-c3ccccc3)nc(-c3ccc(-n4c5ccc(-n6c7ccccc7c7ccccc76)cc5c5cc(-n6c7ccccc7c7ccccc76)ccc54)cc3)n2)cc1`, the emission maximum is, setting by setting: (in Cc1ccccc1) 458 nm; (in O=P(c1ccccc1)(c1ccccc1)c1ccccc1Oc1ccccc1P(=O)(c1ccccc1)c1ccccc1) 475 nm and 450.31 nm.
`COC(=O)c1[nH]c(-c2ccccc2)c2nnc3c4ccccc4oc3c12` showed an emission maximum (in ClCCl) of 473 nm.
Consider `COc1ccc(-c2cc3c(s2)c(C(=O)c2ccccc2)cc(=O)n3Cc2ccccc2)cc1`, for which the emission maximum was determined as 558 nm (in CC#N) and 547 nm (in ClCCl).
For the compound `COc1ccc(-c2cnc(/C=C/c3ccc(OC)c(OC)c3)o2)cc1`, under “in ClCCl”, the emission maximum amounted to 435 nm.
On the same count and under the same terms, under `CC(C)c1cccc(C(C)C)c1N1C(c2ccccc2)=Cc2ccc3ccccc3[n+]2[B-]1(F)F` stands 472 nm.
As to `C(C1=[NH+]c2cccc3cccc1c23)=c1[nH]c2cccc3cccc1c32`, the emission maximum (in CO) was 617 nm.
For `CCCCC1(CCCC)c2cc(C#Cc3ccc4ccc5cccc6ccc3c4c56)ccc2-c2ccc(N(c3ccccc3)c3ccccc3)cc21`, the emission maximum is, setting by setting: (in C1CCCCC1) 436 nm; (in C1CCOC1) 498 nm; (in CC#N) 557 nm; (in CCOC(C)=O) 490 nm; (in CN(C)C=O) 565 nm; (in Cc1ccccc1) 449 nm. The emission maximum runs as follows: (in ClC(Cl)Cl) 486 nm; (in ClCCl) 516 nm.
With `O=C(N/N=C/c1ccccc1O)c1cccc2ccccc12`, the emission maximum is, setting by setting: (in C1CCOC1) 436 nm; (in CC#N) 376 nm; (in CC(C)=O) 428 nm; (in CCO) 429 nm; (in CN(C)C=O) 560 nm; (in CS(C)=O) 336 nm. Under “in ClCCl”, this compound returned an emission maximum of 393 nm.
`CCCSC1=[N+]2C(=C(c3ccccc3)c3ccc(SCCC)n3[B-]2(F)F)C=C1SC#N`: the emission maximum reads like this: (in CC#N) 584 nm; (in CCCCCC) 597 nm; (in CCOC(C)=O) 588 nm; (in CO) 582 nm; (in ClCCl) 586 nm.
In turn, `CCOC(=O)c1c(-c2cc3ccccc3oc2=O)nn(-c2ccc(Br)cc2)c1C(=O)OCC` showed an emission maximum (in ClCCl) of 400 nm.
`Cc1ccc(N(CC(=O)[O-])CC(=O)[O-])c(OCCOc2cc3cc(-c4ncc(C(=O)[O-])o4)oc3cc2N(CC(=O)[O-])CC(=O)[O-])c1` gave an emission maximum (in O) of 500 nm.
On to `CC(C)(C)C1CCC(=CS/C=C/c2ccc(-c3ccc(/C=C/SC=C4CCC(C(C)(C)C)CC4)cc3)cc2)CC1` (stereo unspecified), for which, for the setting “in ClCCl”, the emission maximum came to 432 nm.
As to `C[n+]1ccc(/C=C/c2ccc([O-])cc2)cc1`, the emission maximum was found to be 606 nm (in CC#N); 610 nm (in CC(C)=O); 594 nm (in CC(C)O); 587 nm (in CCCO); 582 nm (in CCO); 608 nm (in CN(C)C=O). Besides, the emission maximum (in CO) was 576 nm; the emission maximum (in CS(C)=O) is on record as 608 nm; the emission maximum (in ClCCl) came out at 615 nm; the emission maximum (in NC=O) is recorded as 577 nm; the emission maximum (in O) was 560 nm; the emission maximum (in OCCO) is given as 573 nm.
